Data on 22 compounds can be found in patent US20260234139A1, “PGDH INHIBITORS AND METHODS OF MAKING AND USING” (Epirium Bio Inc., priority 2023, published 2026).

A value given as a limit tells only on which side of the number the result lay.

The target of one assay is T1, 15-PGDH/HPGD (Homo sapiens, UniProt P15428).
T1 construct: purchased R&D System 5660-DH
T1 sequence (P15428 1-266): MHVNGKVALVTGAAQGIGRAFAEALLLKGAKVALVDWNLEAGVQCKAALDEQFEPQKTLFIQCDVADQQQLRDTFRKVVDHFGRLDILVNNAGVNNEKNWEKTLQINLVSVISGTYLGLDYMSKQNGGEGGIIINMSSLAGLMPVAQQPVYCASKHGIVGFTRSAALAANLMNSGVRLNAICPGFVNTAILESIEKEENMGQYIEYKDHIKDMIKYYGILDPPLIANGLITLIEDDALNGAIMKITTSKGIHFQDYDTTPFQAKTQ
The experiment in a line: hPGDH inhibitor screening biochemical assay. To be noted: 10 nM enzyme, 15 μM Prostaglandin E2, 0.25 mM NAD, fluorescence ex/em 340/485 nm. The gist of the method:
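Recombinant 15-PGDH (10 nM) preincubated with compound 10 min at 37° C, then 15 μM PGE2 and 0.25 mM NAD⁺ added for 10 min at room temperature in 50 mM Tris-HCl pH 7.5, 0.01% Tween 20. NADH fluorescence at ex/em 340/485 nm; 10-point dose response.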

The subject of a further assay is A549. The experiment in a line: A549 EC50 (cell assay, method not described). It counts as cell-based. To be noted: Homo sapiens, A549, A549.

As to `CCOC1([C@H](O)c2cnc3c(cnn3-c3ccc(C(=O)O)cc3)c2)CCC1` [Compound 85A], the 50% inhibitory concentration (IC50) (in general, the concentration at which inhibition is half-maximal) against 15-PGDH/HPGD was 100 to 1000 nM. Moreover, in the assay on A549, the EC50 (usually the concentration that produces a half-maximal response) was not below 1000 nM.
The matching figures for `NC(=O)c1ccc(-n2ncc3cc([C@@H](O)COC4CCC4)cnc32)cc1` [Compound 81B]: less than 100 nM and 100 to 1000 nM.
In the case of `C[C@@H](OC1CCC1)[C@H](O)c1cnc2c(cnn2-c2ccc(C(=O)O)cc2)c1` [Compound 108A], the IC50 at 15-PGDH/HPGD is less than 100 nM. Besides, in the assay with A549, the 50% effective concentration (EC50) is less than 100 nM.
Take `C[S+]([O-])c1cccc(-n2ncc3cc([C@H](O)COC4CCC4)cnc32)c1` (some centres unmarked) [Compound 125B]: the IC50 on 15-PGDH/HPGD is not below 1000 nM. In the assay with A549, the half-maximal effective concentration (EC50) is not below 1000 nM.
For the compound `COCC[C@@H](O)c1cnc2c(cnn2-c2cccc(-c3nnc[nH]3)c2)c1` [Compound 36A], the IC50 against 15-PGDH/HPGD was less than 100 nM. In the assay on A549, the EC50 is less than 100 nM.
On 15-PGDH/HPGD, `CNC(=O)c1cccc(-n2ncc3cc([C@@H](O)COC4CCC4)cnc32)c1` [Compound 110A] displayed an IC50 of less than 100 nM. This compound also displayed a half-maximal effective concentration (EC50) in the assay on A549 of less than 100 nM.
Consider `C[S+]([O-])c1ccc(-n2ncc3cc([C@H](O)COC4CCC4)cnc32)cc1` (some centres unmarked) [Compound 124B], for which the half-maximal inhibitory concentration (IC50) on 15-PGDH/HPGD is not below 1000 nM. In addition, the EC50 in the assay on A549 was not below 1000 nM.
As for `CCCC(F)(F)[C@H](O)c1cnc2c(ccn2-c2cccc(-c3nnc[nH]3)c2)n1` [Compound 35B], on 15-PGDH/HPGD, the IC50 was 100 to 1000 nM. Further, the EC50 in the assay with A549 is not below 1000 nM.
In turn, `CCCC(F)(F)[C@@H](O)c1cnc2c(ccn2-c2cccc(-c3nnc[nH]3)c2)n1` [Compound 35A] yielded an IC50 at 15-PGDH/HPGD of less than 100 nM. The compound also showed an EC50 in the assay with A549 of less than 100 nM.
As for `O=C(O)c1ccc(-n2ncc3cc([C@H](O)COC4CCC4)cnc32)cc1F` [Compound 94B], the 50% inhibitory concentration (IC50) at 15-PGDH/HPGD is less than 100 nM. This compound gave a 50% effective concentration (EC50) with A549 not below 1000 nM.
The matching figures for `COCC[C@H](O)c1cnc2c(cnn2-c2cccc(-c3nnc[nH]3)c2)c1` [Compound 36B]: less than 100 nM and 100 to 1000 nM.
The like results for `CC(C)OCC(O)c1cnc2c(cnn2-c2ccc(CCC(=O)O)c(F)c2)c1` (stereo in doubt) [Compound 70A, (R)-3-(2-fluoro-4-(5-(1-hydroxy-2-isopropoxyethyl)-1H-pyrazolo[3,4-b]pyridin-1-yl)phenyl) propanoic acid] were, in that order, less than 100 nM and less than 100 nM.
The compound `CC1(OC[C@@H](O)c2cnc3c(cnn3-c3ccc(C(=O)O)cc3)c2)CC1` [Compound 92B] showed an IC50 on 15-PGDH/HPGD of less than 100 nM. This compound also yielded an EC50 in the assay with A549 of less than 100 nM.
At 15-PGDH/HPGD, `CC1(OC[C@H](O)c2cnc3c(cnn3-c3ccc(C(=O)O)cc3)c2)CC1` [Compound 92A] had an IC50 of less than 100 nM. Also, the EC50 in the assay with A549 is not below 1000 nM.
Consider `CCCC[C@@H](O)c1cnc2c(ccn2-c2cccc(-c3nnc[nH]3)c2)n1` [Compound 2B], for which the half-inhibitory concentration (IC50) against 15-PGDH/HPGD is less than 100 nM. Further, in the assay on A549, the EC50 lay in the range of 100 to 1000 nM.
`CS(=O)(=O)c1ccc(-n2ncc3cc([C@H](O)COC4CCC4)cnc32)cc1` [Compound 121B] had an IC50 on 15-PGDH/HPGD not below 1000 nM. The EC50 in the assay on A549 is not below 1000 nM.
As to `O[C@H](c1cnc2c(cnn2-c2cccc(-c3nnc[nH]3)c2)c1)C1C2CCCCC21` (some centres unmarked) [Compound 51A], the IC50 against 15-PGDH/HPGD is less than 100 nM. In the assay on A549, this compound gave an EC50 of 100 to 1000 nM.
Regarding `CCCCC(C)(O)c1cnc2c(ccn2-c2cc(Cl)cc(-c3nnc[nH]3)c2)c1` (centres unmarked) [Compound 15], on 15-PGDH/HPGD, the concentration for half-maximal inhibition (IC50) was in the range of 100 to 1000 nM. The EC50 in the assay with A549 is not below 1000 nM.
For the compound `O=C(O)c1ccc(-n2ncc3cc([C@@H](O)COC4CCCC4)cnc32)cc1` [Compound 89A], the IC50 at 15-PGDH/HPGD was less than 100 nM. The same compound came in with a concentration giving a half-maximal response (EC50) in the assay with A549 not below 1000 nM.
The matching figures for `O=C(O)[C@@H]1CCN(c2ccc(-n3ncc4cc([C@H](O)COC5CCC5)cnc43)cc2)C1` [Compound 87B]: 100 to 1000 nM and 100 to 1000 nM.
As for `O[C@@H](COC1CC1)c1cnc2c(ccn2-c2cccc(-c3nnc[nH]3)c2)n1` [Compound 38B], the 50% inhibitory concentration (IC50) against 15-PGDH/HPGD was less than 100 nM. For the same compound, the EC50 in the assay with A549 is 100 to 1000 nM.
The like results for `O[C@@H](COC1CCC1)c1cnc2c(cnn2-c2cncc(-c3nnc[nH]3)c2)c1` [Compound 117A] were, in that order, less than 100 nM and less than 100 nM.
